The source of these data is patent US8999966B2, “Compounds that are ERK inhibitors” (Merck Sharp & Dohme Corp., priority 2010, dated 2015).

In general, pIC50 refers to the IC50 on a negative log10 scale, so that one unit is a factor of ten. Low values mean a high IC50, high ones a low IC50.

For the assay, the target named is fully phosphorylated, active Mouse ERK2 protein (Mus musculus, UniProt P63085). As to the kind of experiment: Active ERK2 assay (AERK2), IMAP format. The class given is biochemical. The conditions noted are these: activated ERK2, IMAP fluorescence polarization, 30 μM ATP. The protocol: 14 μl of kinase buffer (10 mM Tris.HCl pH 7.2, 10 mM MgCl2, 0.01% Tween-20, 1 mM DTT) containing 0.4 ng unphosphorylated Mouse ERK2 protein can be added to each well of a black 384-well assay plate. […] DMSO concentration during initial incubation is 6.7%. ERK2 activity can be determined to be insensitive to DMSO concentrations up to 20%. ERK2 can then be activated and it's kinase activity can be measured by the addition of 10 μl kinase buffer with the following components (final concentration per reaction): 2 ng active (phosphorylated) human MEK1 protein and 4 μM (total) ERK2 IMAP substrate peptides (3.9 μM unlabeled IPTTPITTTYFFFK-CONH2 and 100 nM IPTTPITTTYFFFK(5-carboxyfluorescein)-CONH2) and 30 μM ATP. DMSO concentration during ERK activation can be 4%. After one hour, reactions can be terminated by addition of 60 μl IMAP detections beads in binding buffer (Molecular Devices). Binding can be allowed to equilibrate for 30 minutes before reading the plate on an LJL Analyst Fluorescence Polarization plate reader. […] Active compounds can be reconfirmed in an independent assay.
Activated ERK2 activity was also determined in the IMAP assay format using the procedure outlined above. 1 μl of 25× compound was added to 14 μl of kinase buffer containing 0.25 ng fully phosphorylated, active Mouse ERK2 protein. Following a 30 minute incubation, the reactions were initiated by addition of 10 μl of kinase buffer containing 1 μM ERK2 IMAP substrate peptide (0.9 μM unlabeled IPTTPITTTYFFFK-CONH2 and 100 nM IPTTPITTTYFFFK(5-carboxyfluorescein)-CONH2) and 30 μM ATP. Reactions proceeded for 30 minutes before termination by addition of 60 μl IMAP detection beads in binding buffer. Plates were read as above after 30 minute binding equilibration. Active compounds were reconfirmed in an independent assay.

pIC50: −log10 of the molar value.

fully phosphorylated, active Mouse ERK2 protein, sequence (P63085 whole entry): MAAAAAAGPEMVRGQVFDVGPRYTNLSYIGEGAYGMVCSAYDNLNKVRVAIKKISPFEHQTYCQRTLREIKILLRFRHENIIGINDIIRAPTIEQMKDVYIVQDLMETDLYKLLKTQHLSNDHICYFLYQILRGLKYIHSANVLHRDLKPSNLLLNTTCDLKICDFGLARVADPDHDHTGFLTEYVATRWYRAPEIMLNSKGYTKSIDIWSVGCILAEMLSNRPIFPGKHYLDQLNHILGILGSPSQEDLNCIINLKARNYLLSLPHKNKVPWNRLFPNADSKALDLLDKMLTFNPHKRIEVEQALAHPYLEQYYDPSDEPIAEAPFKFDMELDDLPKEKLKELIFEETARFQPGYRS

For the compound `Fc1ccccc1CN1CCC[C@@H](c2nnc(-c3ccc4[nH]nc(-c5ccnc(Cl)c5)c4c3)o2)C1` [Example 353, 3-(2-CHLORO-4-PYRIDINYL)- 5-[5-[1-[(2- FLUOROPHENYL)METHYL]- 3(R)-PIPERIDINYL]-1,3,4- OXADIAZOL-2-YL]-1H- INDAZOLE], the pIC50 is ≤ 6.30.

Consider `Fc1cccc(F)c1CN1CCC[C@@H](c2cn(-c3ccc4[nH]nc(-c5ccnc6[nH]ccc56)c4c3)nn2)C1` [Example 248, 5-[4-[1-[(2,6- DIFLUOROPHENYL)METHYL]- 3(R)-PIPERIDINYL]-1H- 1,2,3-TRIAZOL-1-YL]-3-(1H PYRROLO[2,3-b]PYRIDIN-4- YL)-1H-INDAZOLE], for which the pIC50 was ≤ 6.30.

For the compound `Fc1ccccc1CN1CCCC(c2nnc(-c3ccc4[nH]nc(-c5ccncc5)c4c3)o2)C1` (stereo not drawn) [Example 306, 5-[5-[1-[(2- FLUOROPHENYL)METHYL]- 3-PIPERIDINYL]-1,3,4- OXADIAZOL-2-YL]-3-(4- PYRIDINYL)-1H-INDAZOLE], the pIC50 was 7.98 to 9.52.

In the case of `Clc1cc(-c2n[nH]c3ccc(-c4nnc(C5CCCN(Cc6ccccc6)C5)o4)cc23)ccn1` (stereo not drawn) [Example 309, 3-(2-CHLORO-4-PYRIDINYL)- 5-[5-[1-(PHENYLMETHYL)-3- PIPERIDINYL]-1,3,4- OXADIAZOL-2-YL]-1H- INDAZOLE], the pIC50 is < 6.00.

On to `COc1cccc(F)c1CN1CCCCC1c1nc(-c2ccc3[nH]nc(-c4ccc5c(c4)CCO5)c3c2)n[nH]1` (stereo not drawn) [Example 258, 3-(2,3-DIHYDRO-5- BENZOFURANYL)-5-[5-[1-[(2- FLUORO-6- METHOXYPHENYL)METHYL]- 2-PIPERIDINYL]-1H-1,2,4- TRIAZOL-3-YL]-1H- INDAZOLE], for which the pIC50 is < 6.00.

In the case of `Clc1cc(-c2n[nH]c3ccc(-c4nnc([C@@H]5CCCN(Cc6csc7ccccc67)C5)o4)cc23)ccn1` [Example 354, 5-[5-[1-(BENZO[b]THIEN-3- YLMETHYL)-3(R)- PIPERIDINYL]-1,3,4- OXADIAZOL-2-YL]-3-(2- CHLORO-4-PYRIDINYL)-1H- INDAZOLE], the pIC50 was < 6.00.

Regarding `Fc1cc(CN2CCC[C@@H](c3nnc(-c4ccc5[nH]nc(-c6ccnc(Cl)c6)c5c4)o3)C2)c(Cl)cc1Cl` [Example 358, 3-(2-CHLORO-4-PYRIDINYL)- 5-[5-[1-[(2,4-DICHLORO-5- FLUOROPHENYL)METHYL]- 3(R)-PIPERIDINYL]-1,3,4- OXADIAZOL-2-YL]-1H- INDAZOLE], the pIC50 is ≤ 6.30.

As for `c1ccc2oc(CN3CCC[C@@H](c4nnc(-c5ccc6[nH]nc(-c7ccc8occc8c7)c6c5)o4)C3)cc2c1` [Example 350, 3-(5-BENZOFURANYL)-5-[5- [1-(2- BENZOFURANYLMETHYL)- 3(R)-PIPERIDINYL]-1,3,4- OXADIAZOL-2-YL]-1H- INDAZOLE], the pIC50 was < 6.00.

As to `CCn1cc(-c2n[nH]c3ccc(-c4nnc([C@@H]5CCCN(Cc6csc7ccccc67)C5)o4)cc23)cn1` [Example 339, 5-[5-[1-(BENZO[b]THIEN-3- YLMETHYL)-3(R)- PIPERIDINYL]-1,3,4- OXADIAZOL-2-YL]-3-(1- ETHYL-1H-PYRAZOL-4-YL)- 1H-INDAZOLE], the pIC50 was < 6.00.

Take `CC(C)Oc1ccc(-c2n[nH]c3ccc(-c4n[nH]c([C@@H]5CCCN(Cc6cccs6)C5)n4)cc23)cc1` [Example 304, 3-[4-(1- METHYLETHOXY)PHENYL]- 5-[5-[1-(2- THIENYLMETHYL)-3(R)- PIPERIDINYL]-1H-1,2,4- TRIAZOL-3-YL]-1H- INDAZOLE]: the pIC50 is ≤ 6.30.

Take `COc1cccc(F)c1CN1CCOC(c2cn(-c3ccc4[nH]nc(-c5ccncc5)c4c3)nn2)C1` (stereo not drawn) [Example 251, 5-[4-[4-[(2-FLUORO-6- METHOXYPHENYL)METHYL]- 2-MORPHOLINYL]-1H- 1,2,3-TRIAZOL-1-YL]-3-(4- PYRIDINYL)-1H-INDAZOLE]: the pIC50 was 7.98 to 9.52.

`CC(C)Oc1ccc(-c2n[nH]c3ccc(-c4n[nH]c([C@@H]5CCCN(Cc6c(F)cccc6F)C5)n4)cc23)cc1` [Example 299, 5-[5-[1-[(2,6- DIFLUOROPHENYL)METHYL]- 3(R)-PIPERIDINYL]-1H- 1,2,4-TRIAZOL-3-YL]-3-[4-(1- METHYLETHOXY)PHENYL]- 1H-INDAZOLE]: the pIC50 was ≤ 6.30.

As for `Fc1cccc(F)c1CN1CC=CC[C@@H]1c1nc(-c2ccc3[nH]nc(-c4ccc5c(c4)CCO5)c3c2)n[nH]1` [Example 254, 5-[5-[1-[(2,6- DIFLUOROPHENYL)METHYL]- 1,2,3,6-TETRAHYDRO- 2(R)-PYRIDINYL]-1H-1,2,4- TRIAZOL-3-YL]-3-(2,3- DIHYDRO-5- BENZOFURANYL)-1H- INDAZOLE], the pIC50 was ≤ 6.30.

`Fc1ccccc1CN1CCOC(c2cn(-c3ccc4[nH]nc(-c5ccncc5)c4c3)nn2)C1` (stereo not drawn) [Example 249, 5-[4-[4-[(2- FLUOROPHENYL)METHYL]- 2-MORPHOLINYL]-1H-1,2,3- TRIAZOL-1-YL]-3-(4- PYRIDINYL)-1H-INDAZOLE] had a pIC50 of 7.98 to 9.52.

In turn, `COc1cccc(F)c1CN1CCC[C@@H](c2nnc(-c3ccc4[nH]nc(-c5ccnc(C)c5)c4c3)o2)C1` [Example 336, 5-[5-[1-[(2-FLUORO-6- METHOXYPHENYL)METHYL]- 3(R)-PIPERIDINYL]-1,3,4- OXADIAZOL-2-YL]-3-(2- METHYL-4-PYRIDINYL)-1H- INDAZOLE] showed a pIC50 of 7.98 to 9.52.

`C1=CCN(Cc2cccs2)[C@@H](c2nc(-c3ccc4[nH]nc(-c5ccc6c(c5)CCO6)c4c3)n[nH]2)C1` [Example 255, 3-(2,3-DIHYDRO-5- BENZOFURANYL)-5-[5- [1,2,3,6-TETRAHYDRO-1-(2- THIENYLMETHYL)-2(R)- PYRIDINYL]-1H-1,2,4- TRIAZOL-3-YL]-1H- INDAZOLE]: the pIC50 is ≤ 6.30.

`Clc1cc(-c2n[nH]c3ccc(-c4nnc([C@@H]5CCCN(Cc6cc7ccccc7o6)C5)o4)cc23)ccn1` [Example 357, 5-[5-[1-(2- BENZOFURANYLMETHYL)- 3(R)-PIPERIDINYL]-1,3,4- OXADIAZOL-2-YL]-3-(2- CHLORO-4-PYRIDINYL)-1H- INDAZOLE]: the pIC50 was ≤ 6.30.

Regarding `c1cc2cc(-c3n[nH]c4ccc(-c5nnc([C@@H]6CCCN(CC7CCCCC7)C6)o5)cc34)ccc2o1` [Example 352, 3-(5-BENZOFURANYL)-5-[5- [1-(CYCLOHEXYLMETHYL)- 3(R)-PIPERIDINYL]-1,3,4- OXADIAZOL-2-YL]-1H- INDAZOLE], the pIC50 was < 6.00.

Regarding `Fc1cccc(F)c1CN1CCC[C@@H](c2nc(-c3ccc4[nH]nc(-c5ccc(C(F)(F)F)cc5)c4c3)n[nH]2)C1` [Example 301, 5-[5-[1-[(2,6- DIFLUOROPHENYL)METHYL]- 3(R)-PIPERIDINYL]-1H- 1,2,4-TRIAZOL-3-YL]-3-[4- (TRIFLUOROMETHYL)PHEN- YL]-1H-INDAZOLE], the pIC50 was ≤ 6.30.

As to `Fc1cccc(F)c1CN1CCC[C@@H](c2nc(-c3ccc4[nH]nc(-c5ccnc(F)c5F)c4c3)n[nH]2)C1` [Example 302, 5-[5-[1-[(2,6- DIFLUOROPHENYL)METHYL]- 3(R)-PIPERIDINYL]-1H- 1,2,4-TRIAZOL-3-YL]-3-(2,3- DIFLUORO-4-PYRIDINYL)- 1H-INDAZOLE], the pIC50 is ≤ 6.30.

Take `CCn1cc(-c2n[nH]c3ccc(-c4nnc([C@@H]5CCCN(Cc6cn(C)c7ccccc67)C5)o4)cc23)cn1` [Example 341, 3-(1-ETHYL-1H-PYRAZOL-4- YL)-5-[5-[1-[(1-METHYL-1H- INDOL-3-YL)METHYL]-3(R)- PIPERIDINYL]-1,3,4- OXADIAZOL-2-YL]-1H- INDAZOLE]: the pIC50 is < 6.00.
